Experimental data from patent US12441691B2 (Cytokinetics, Inc., priority 2020, dated 2025).

Tested on: rabbit skeletal myofibrils (fast skeletal myofibrils)
Assay: Activation of fast skeletal myofibrils (PUMA assay, AC1.4)
Format: biochemical
Conditions: calcium at pCa25, AC1.4 = concentration at which the compound increased the enzymatic activity
Method in brief: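 Detergent-washed rabbit psoas myofibrils (~90% fast fibers), calcium set to give 25% of maximal rate (pCa25). ATPase followed by pyruvate kinase/lactate dehydrogenase-coupled NADH oxidation, absorbance at 340 nm. PM12 buffer: 12 mM PIPES, 2 mM MgCl2, 1 mM DTT, pH 6.8.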

Row | Compound | AC1.4 [µM]
1 | CNC(=O)N1Cc2ccccc2NC(=O)[C@@H]1C(C)C [Compound 335, (S)-3-isopropyl-N-methyl-2-oxo-1,2,3,5-tetrahydro-4H-benzo[e][1,4]diazepine-4-carboxamide] | 3.75
2 | CC[C@H](C)[C@H]1C(=O)Nc2cccc(F)c2CN1/C(N)=N\C#N [Compound 336, (S,Z)-3-((S)-sec-butyl)-N′-cyano-6-fluoro-2-oxo-1,2,3,5-tetrahydro-4H-benzo[e][1,4]diazepine-4-carboximidamide] | 0.12
3 | CC[C@H](C)[C@H]1C(=O)Nc2cccc(F)c2CN1C(=O)N1CC(O)C1 [Compound 337, (S)-3-((S)-sec-butyl)-6-fluoro-4-(3-hydroxyazetidine-1-carbonyl)-1,3,4,5-tetrahydro-2H-benzo[e][1,4]diazepin-2-one] | 0.72
4 | CC[C@H](C)[C@H]1C(=O)Nc2cccc(F)c2CN1C(=O)NC [Compound 338, (S)-3-((S)-sec-butyl)-6-fluoro-N-methyl-2-oxo-1,2,3,5-tetrahydro-4H-benzo[e][1,4]diazepine-4-carboxamide] | 0.69
5 | CC[C@H](C)[C@H]1C(=O)Nc2cccc(F)c2CN1C(=O)CCO [Compound 339, (S)-3-((S)-sec-butyl)-6-fluoro-4-(3-hydroxypropanoyl)-1,3,4,5-tetrahydro-2H-benzo[e][1,4]diazepin-2-one] | 2.79
6 | CC[C@H](C)[C@H]1C(=O)Nc2cccc(F)c2CN1C(=O)N1CC[C@H](O)C1 [Compound 340, (S)-3-((S)-sec-butyl)-6-fluoro-4-((S)-3-hydroxypyrrolidine-1-carbonyl)-1,3,4,5-tetrahydro-2H-benzo[e][1,4]diazepin-2-one] | 3.00
7 | CC[C@H](C)[C@H]1C(=O)Nc2ccc(F)cc2CN1C(=O)CO [Compound 341, (S)-3-((S)-sec-butyl)-7-fluoro-4-(2-hydroxyacetyl)-1,3,4,5-tetrahydro-2H-benzo[e][1,4]diazepin-2-one] | 2.37
8 | CC[C@H](C)[C@H]1C(=O)Nc2ccc(F)cc2CN1C(=O)c1cn[nH]c1 [Compound 342, (S)-3-((S)-sec-butyl)-7-fluoro-4-(1H-pyrazole-4-carbonyl)-1,3,4,5-tetrahydro-2H-benzo[e][1,4]diazepin-2-one] | 0.27
9 | CC[C@H](C)[C@H]1C(=O)Nc2ccc(F)cc2CN1C(=O)c1ncn[nH]1 [Compound 343, (S)-3-((S)-sec-butyl)-7-fluoro-4-(1H-1,2,4-triazole-5-carbonyl)-1,3,4,5-tetrahydro-2H-benzo[e][1,4]diazepin-2-one] | 0.25
10 | CC[C@H](C)[C@H]1C(=O)Nc2ccc(F)cc2CN1C(=O)c1cccc(=O)[nH]1 [Compound 344, (S)-3-((S)-sec-butyl)-7-fluoro-4-(6-oxo-1,6-dihydropyridine-2-carbonyl)-1,3,4,5-tetrahydro-2H-benzo[e][1,4]diazepin-2-one] | 1.91
11 | CC[C@H](C)[C@H]1C(=O)Nc2ccc(F)cc2CN1S(N)(=O)=O [Compound 345, (S)-3-((S)-sec-butyl)-7-fluoro-2-oxo-1,2,3,5-tetrahydro-4H-benzo[e][1,4]diazepine-4-sulfonamide] | 2.43
12 | CC[C@H](C)[C@H]1C(=O)Nc2ccc(F)cc2CN1C(=O)N1CC(C)(O)C1 [Compound 346, (S)-3-((S)-sec-butyl)-7-fluoro-4-(3-hydroxy-3-methylazetidine-1-carbonyl)-1,3,4,5-tetrahydro-2H-benzo[e][1,4]diazepin-2-one] | 1.57
13 | CC[C@H](C)[C@H]1C(=O)Nc2ccc(F)cc2CN1C(=O)N1CC[C@H](O)C1 [Compound 347, (S)-3-((S)-sec-butyl)-7-fluoro-4-((S)-3-hydroxypyrrolidine-1-carbonyl)-1,3,4,5-tetrahydro-2H-benzo[e][1,4]diazepin-2-one] | 3.59
14 | CC[C@H](C)[C@H]1C(=O)Nc2ccc(F)cc2CN1C(=O)NC [Compound 348, (S)-3-((S)-sec-butyl)-7-fluoro-N-methyl-2-oxo-1,2,3,5-tetrahydro-4H-benzo[e][1,4]diazepine-4-carboxamide] | 0.72
15 | CC[C@H](C)[C@H]1C(=O)Nc2ccc(F)cc2CN1C(=O)N[C@H]1CCN(CCO)C1 [Compound 349, (S)-3-((S)-sec-butyl)-7-fluoro-N-((S)-1-(2-hydroxyethyl)pyrrolidin-3-yl)-2-oxo-1,2,3,5-tetrahydro-4H-benzo[e][1,4]diazepine-4-carboxamide] | 1.57
16 | CC[C@H](C)[C@H]1C(=O)Nc2ccc(F)cc2CN1C(=O)N[C@H]1CCN(C)C1 [Compound 350, (S)-3-((S)-sec-butyl)-7-fluoro-N-((S)-1-methylpyrrolidin-3-yl)-2-oxo-1,2,3,5-tetrahydro-4H-benzo[e][1,4]diazepine-4-carboxamide] | 1.11

Row | Compound | AC1.4 [µM]
17 | CC[C@H](C)[C@H]1C(=O)Nc2ccc(F)cc2CN1C(=O)NC1CCN(CCO)CC1 [Compound 351, (S)-3-((S)-sec-butyl)-7-fluoro-N-(1-(2-hydroxyethyl)piperidin-4-yl)-2-oxo-1,2,3,5-tetrahydro-4H-benzo[e][1,4]diazepine-4-carboxamide] | 1.17
18 | CC[C@H](C)[C@H]1C(=O)Nc2ccc(F)cc2CN1C(=O)N[C@H]1CC[C@H](O)CC1 [Compound 352, (S)-3-((S)-sec-butyl)-7-fluoro-N-((1r,4S)-4-hydroxycyclohexyl)-2-oxo-1,2,3,5-tetrahydro-4H-benzo[e][1,4]diazepine-4-carboxamide] | 0.73
19 | CC[C@H](C)[C@H]1C(=O)Nc2ccc(F)cc2CN1C(=O)N[C@H]1CC[C@H](O)C1 [Compound 353, (S)-3-((S)-sec-butyl)-7-fluoro-N-((1S,3S)-3-hydroxycyclopentyl)-2-oxo-1,2,3,5-tetrahydro-4H-benzo[e][1,4]diazepine-4-carboxamide] | 1.76
20 | CC[C@H](C)[C@H]1C(=O)Nc2ccc(F)cc2CN1C(=O)N[C@H]1C[C@H](O)C1 [Compound 354, (S)-3-((S)-sec-butyl)-7-fluoro-N-((1r,3S)-3-hydroxycyclobutyl)-2-oxo-1,2,3,5-tetrahydro-4H-benzo[e][1,4]diazepine-4-carboxamide] | 1.59
21 | CC[C@H](C)[C@H]1C(=O)Nc2ccc(F)cc2CN1C(=O)N[C@H]1C[C@@H](O)C1 [Compound 355, (S)-3-((S)-sec-butyl)-7-fluoro-N-((1s,3R)-3-hydroxycyclobutyl)-2-oxo-1,2,3,5-tetrahydro-4H-benzo[e][1,4]diazepine-4-carboxamide] | 1.49
22 | CC[C@H](C)[C@H]1C(=O)Nc2cc(F)ccc2CN1C(=O)NC1CCN(CCO)CC1 [Compound 356, (S)-3-((S)-sec-butyl)-8-fluoro-N-(1-(2-hydroxyethyl)piperidin-4-yl)-2-oxo-1,2,3,5-tetrahydro-4H-benzo[e][1,4]diazepine-4-carboxamide] | 0.24
23 | CC[C@H](C)[C@H]1C(=O)Nc2cc(F)ccc2CN1C(=O)N[C@H]1CCN(C)C1 [Compound 358, (S)-3-((S)-sec-butyl)-8-fluoro-N-((S)-1-methylpyrrolidin-3-yl)-2-oxo-1,2,3,5-tetrahydro-4H-benzo[e][1,4]diazepine-4-carboxamide] | 0.40
24 | CC[C@H](C)[C@H]1C(=O)Nc2cc(F)ccc2CN1C(=O)N1CC[C@H](O)C1 [Compound 359, (S)-3-((S)-sec-butyl)-8-fluoro-4-((S)-3-hydroxypyrrolidine-1-carbonyl)-1,3,4,5-tetrahydro-2H-benzo[e][1,4]diazepin-2-one] | 0.77
25 | CC[C@H](C)[C@H]1C(=O)Nc2cc(F)ccc2CN1C(=O)NC1CCN(C2COC2)CC1 [Compound 360, (S)-3-((S)-sec-butyl)-8-fluoro-N-(1-(oxetan-3-yl)piperidin-4-yl)-2-oxo-1,2,3,5-tetrahydro-4H-benzo[e][1,4]diazepine-4-carboxamide] | 0.37
26 | CC[C@H](C)[C@H]1C(=O)Nc2cncc(F)c2CN1C(C)=O [Compound 361, (S)-4-acetyl-3-((S)-sec-butyl)-6-fluoro-1,3,4,5-tetrahydro-2H-pyrido[3,4-e][1,4]diazepin-2-one] | 1.62
27 | CC[C@H](C)[C@H]1C(=O)Nc2cncc(F)c2CN1C(=O)CO [Compound 362, (S)-3-((S)-sec-butyl)-6-fluoro-4-(2-hydroxyacetyl)-1,3,4,5-tetrahydro-2H-pyrido[3,4-e][1,4]diazepin-2-one] | 1.68
28 | CC[C@H](C)[C@H]1C(=O)Nc2cncc(F)c2CN1C(=O)COC [Compound 363, (S)-3-((S)-sec-butyl)-6-fluoro-4-(2-methoxyacetyl)-1,3,4,5-tetrahydro-2H-pyrido[3,4-e][1,4]diazepin-2-one] | 2.60
29 | CC[C@H](C)[C@H]1C(=O)Nc2cncc(F)c2CN1C(=O)OC [Compound 364, methyl (S)-3-((S)-sec-butyl)-6-fluoro-2-oxo-1,2,3,5-tetrahydro-4H-pyrido[3,4-e][1,4]diazepine-4-carboxylate] | 3.31
30 | CC[C@H](C)[C@H]1C(=O)Nc2cncc(F)c2CN1/C(N)=N/C#N [Compound 365, (S,E)-3-((S)-sec-butyl)-N′-cyano-6-fluoro-2-oxo-1,2,3,5-tetrahydro-4H-pyrido[3,4-e][1,4]diazepine-4-carboximidamide] | 0.19
31 | CC[C@H](C)[C@H]1C(=O)Nc2cncc(F)c2CN1c1c(N)c(=O)c1=O [Compound 366, 3-amino-4-((S)-3-((S)-sec-butyl)-6-fluoro-2-oxo-1,2,3,5-tetrahydro-4H-pyrido[3,4-e][1,4]diazepin-4-yl)cyclobut-3-ene-1,2-dione] | 0.21
32 | CC[C@H](C)[C@H]1C(=O)Nc2cncc(F)c2CN1C(=O)NC [Compound 367, (S)-3-((S)-sec-butyl)-6-fluoro-N-methyl-2-oxo-1,2,3,5-tetrahydro-4H-pyrido[3,4-e][1,4]diazepine-4-carboxamide] | 1.05
